Source: PMC6934184, “Selective DNA-PKcs inhibition extends the therapeutic index of localized radiotherapy and chemotherapy” (The Journal of Clinical Investigation, 2019)

Target: T1, DAPK1 (Homo sapiens, UniProt P53355)
T1 construct: purchased Thermo Fisher Scientific (Life Technologies) SelectScreen
Assay: SelectScreen Adapta
Type: biochemical
Outline: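 Compound tested in SelectScreen activity assays, Z'LYTE for CSF1R, CDK1/cyclin B and MAP2K6 and Adapta for CAMK1. ATP for CAMK1 was listed as 10, and Km app was used for CSF1R. Results are expressed in percent.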

T1 sequence (P53355 whole entry): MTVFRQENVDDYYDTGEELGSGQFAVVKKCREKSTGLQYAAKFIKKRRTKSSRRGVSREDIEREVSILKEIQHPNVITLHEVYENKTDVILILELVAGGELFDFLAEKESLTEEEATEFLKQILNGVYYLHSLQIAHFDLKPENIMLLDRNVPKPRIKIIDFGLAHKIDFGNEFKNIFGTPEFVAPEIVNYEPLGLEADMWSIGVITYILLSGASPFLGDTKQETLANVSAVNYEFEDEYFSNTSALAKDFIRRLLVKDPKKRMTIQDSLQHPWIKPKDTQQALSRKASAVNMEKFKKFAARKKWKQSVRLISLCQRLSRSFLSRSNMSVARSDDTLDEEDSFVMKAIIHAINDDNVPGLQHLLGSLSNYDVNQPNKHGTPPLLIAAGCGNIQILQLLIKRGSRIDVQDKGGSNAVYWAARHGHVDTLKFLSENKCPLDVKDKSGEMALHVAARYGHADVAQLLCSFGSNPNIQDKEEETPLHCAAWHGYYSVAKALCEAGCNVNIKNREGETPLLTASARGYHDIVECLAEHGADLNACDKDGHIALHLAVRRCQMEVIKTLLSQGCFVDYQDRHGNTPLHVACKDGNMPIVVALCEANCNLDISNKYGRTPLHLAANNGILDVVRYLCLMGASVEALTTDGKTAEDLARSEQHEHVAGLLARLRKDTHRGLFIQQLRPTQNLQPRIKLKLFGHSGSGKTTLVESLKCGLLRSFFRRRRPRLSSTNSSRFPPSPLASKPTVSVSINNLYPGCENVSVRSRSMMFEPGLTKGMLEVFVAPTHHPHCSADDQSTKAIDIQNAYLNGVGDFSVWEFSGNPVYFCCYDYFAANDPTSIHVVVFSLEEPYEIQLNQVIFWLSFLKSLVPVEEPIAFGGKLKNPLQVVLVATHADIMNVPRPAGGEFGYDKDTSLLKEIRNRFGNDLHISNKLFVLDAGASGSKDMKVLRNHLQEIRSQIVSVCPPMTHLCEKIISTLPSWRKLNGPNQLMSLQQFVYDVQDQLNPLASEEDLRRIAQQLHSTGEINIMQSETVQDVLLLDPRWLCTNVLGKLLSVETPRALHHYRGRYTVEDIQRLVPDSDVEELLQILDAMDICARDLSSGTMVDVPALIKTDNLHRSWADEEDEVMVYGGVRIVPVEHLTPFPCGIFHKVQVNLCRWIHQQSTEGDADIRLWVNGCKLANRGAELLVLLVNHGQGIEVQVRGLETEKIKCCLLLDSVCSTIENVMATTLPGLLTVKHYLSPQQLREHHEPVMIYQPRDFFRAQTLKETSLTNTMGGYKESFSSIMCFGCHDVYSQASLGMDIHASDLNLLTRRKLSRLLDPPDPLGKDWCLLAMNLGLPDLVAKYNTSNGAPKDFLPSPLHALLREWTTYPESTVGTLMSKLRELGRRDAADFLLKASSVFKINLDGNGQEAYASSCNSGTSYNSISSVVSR

CN(C(=O)CN1CCOCC1)c1ccc2sc3c(-c4cccc5c(=O)cc(N6CC7CCC(C6)O7)oc45)cccc3c2c1 [NU5455]
inhibition at 1 µM: 1.6%
